Usually pKd stands for −log10 of the Kd, conventionally taken in molar units.

Holding throughout (format): binding
The target of test [1] is T1, FGF-R4 ECD (Homo sapiens, UniProt P22455).
T1 construct: DNA constructs for the extracellular domain (ECD) of human FGF-; HPC4 (C); made in house; host or cells: HEK 293-6E
T1 sequence (P22455 22-369 limits assumed): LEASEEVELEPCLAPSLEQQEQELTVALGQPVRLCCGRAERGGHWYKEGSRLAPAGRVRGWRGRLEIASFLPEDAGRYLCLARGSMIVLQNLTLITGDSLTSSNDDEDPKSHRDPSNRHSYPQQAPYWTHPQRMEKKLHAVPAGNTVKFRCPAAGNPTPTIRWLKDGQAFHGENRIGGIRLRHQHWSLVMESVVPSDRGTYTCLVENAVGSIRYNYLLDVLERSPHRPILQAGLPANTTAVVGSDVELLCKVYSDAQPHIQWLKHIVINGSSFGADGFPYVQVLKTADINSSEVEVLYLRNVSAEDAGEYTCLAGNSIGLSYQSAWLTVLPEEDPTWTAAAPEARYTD
The test is described as follows: single concentration BLI of crude peptides. The conditions noted are these: read-out: KD (4). The gist of the method: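 Streptavidin biosensors carrying biotinylated FGF receptor ECD were immersed in peptide (~1 μM for crude single-point runs, a concentration series for purified peptides) and then in peptide-free buffer. KD was obtained by fitting the BLI association and dissociation curves.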

Test [2] has as its target T2, FGF-R1C ECD (Homo sapiens, UniProt P11362).
T2 sequence (P11362 22-376 limits assumed): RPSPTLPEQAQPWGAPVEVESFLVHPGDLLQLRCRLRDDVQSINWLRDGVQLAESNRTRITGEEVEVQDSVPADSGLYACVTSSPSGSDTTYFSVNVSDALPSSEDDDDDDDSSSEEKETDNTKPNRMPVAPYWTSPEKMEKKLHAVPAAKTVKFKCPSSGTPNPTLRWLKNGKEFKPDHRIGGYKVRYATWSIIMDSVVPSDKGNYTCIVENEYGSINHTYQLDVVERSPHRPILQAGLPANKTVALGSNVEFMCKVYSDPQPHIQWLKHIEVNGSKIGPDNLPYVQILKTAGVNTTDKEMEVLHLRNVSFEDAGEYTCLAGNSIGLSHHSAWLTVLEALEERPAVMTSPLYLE
Nature of the test: biochemical. On the set-up: DNA constructs for the extracellular domain (ECD) of human FGF-; HPC4 (C); made in house; host or cells: HEK 293-6E. In a few lines: (§1)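 Biolayer interferometry with biotinylated FGF-R ECD on streptavidin biosensors in PBS pH 7.4, 0.05% Tween-20, 0.01% BSA. Multi-concentration: purified peptide dilution series fitted to a multi-point KD model.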

Test [3] deals with T3, FGF-R3C ECD (Homo sapiens, UniProt P22607).
T3 sequence (P22607 23-375 limits assumed): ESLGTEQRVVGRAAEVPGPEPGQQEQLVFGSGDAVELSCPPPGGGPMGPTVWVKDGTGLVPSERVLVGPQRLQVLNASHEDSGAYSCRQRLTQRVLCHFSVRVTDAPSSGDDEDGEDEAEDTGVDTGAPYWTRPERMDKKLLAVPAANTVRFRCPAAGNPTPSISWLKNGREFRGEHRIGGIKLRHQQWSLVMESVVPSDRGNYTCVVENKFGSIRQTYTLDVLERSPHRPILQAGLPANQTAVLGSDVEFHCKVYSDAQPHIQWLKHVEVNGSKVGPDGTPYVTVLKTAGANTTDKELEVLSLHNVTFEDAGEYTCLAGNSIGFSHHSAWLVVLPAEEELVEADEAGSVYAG
Nature of the test: biochemical. Further details: DNA constructs for the extracellular domain (ECD) of human FGF-; HPC4 (C); made in house; host or cells: HEK 293-6E. The gist of the method: as §1

The mark [4] stands for this setting: crude T18 selection 1 (1:1:1) peptides, single concentration BLI (Table S4).

pKd: −log10 of the molar value. Where two headings read alike, the source gives them in different places. Positions of bridges follow the written chain, without caps; N, C: chain ends. Residues, ends and D or L forms follow the SMILES beside them. A value given as a limit tells only on which side of the number the result lay.

Turning to `CC[C@H](C)[C@@H]1NC(=O)[C@H](C)NC(=O)[C@H](Cc2ccc(O)cc2)NC(=O)[C@@H]2CCCN2C(=O)[C@@H](NC(=O)[C@H](CCSC)NC(C)=O)CSSC[C@@H](C(=O)NCC(=O)N[C@@H](CO)C(=O)NCC(=O)N[C@@H](CO)C(=O)N[C@@H](CCC(=O)O)C(=O)N[C@@H](CCC(=O)O)C(=O)NCC(=O)N[C@@H](CO)C(=O)NCC(=O)N[C@@H](CO)C(=O)N[C@@H](CC(=O)O)C(=O)N[C@@H](Cc2ccc(O)cc2)C(=O)N[C@@H](CCCCN)C(=O)N[C@@H](CC(=O)O)C(=O)N[C@@H](CC(=O)O)C(=O)N[C@@H](CC(=O)O)C(=O)N[C@@H](CC(=O)O)C(=O)N[C@@H](CCCCN)C(N)=O)NC(=O)[C@H]([C@@H](C)O)NC(=O)[C@H](CCCCN)NC(=O)[C@H](CCCNC(=N)N)NC(=O)[C@H](Cc2c[nH]c3ccccc23)NC(=O)[C@H](CCCCN)NC(=O)[C@H](Cc2ccc(O)cc2)NC(=O)[C@H](Cc2c[nH]c3ccccc23)NC(=O)[C@H](Cc2ccc(O)cc2)NC1=O` (Ac-MCPYAIYWYKWRKTCGSGSEEGSGSDYKDDDDK-NH2; disulfide 2-15), the figures for the negative logarithm of the Kd (pKd) in test [1] (setting [4]), in test [2] and in test [3] were 7.96, below 5.00 and below 5.00, respectively.
For `CC[C@H](C)[C@@H]1NC(=O)[C@H](Cc2ccc(O)cc2)NC(=O)[C@H](C)NC(=O)[C@H](C(C)C)NC(=O)[C@H](Cc2ccc(O)cc2)NC(=O)CNC(=O)[C@H](Cc2c[nH]cn2)NC(=O)[C@H]([C@@H](C)CC)NC(=O)[C@H]([C@@H](C)CC)NC(=O)[C@H](CO)NC(=O)[C@H](CC(C)C)NC(=O)[C@H](CC(N)=O)NC(=O)[C@@H](NC(=O)[C@H](CCSC)NC(C)=O)CSSC[C@@H](C(=O)NCC(=O)N[C@@H](CO)C(=O)NCC(=O)N[C@@H](CO)C(=O)N[C@@H](CC(=O)O)C(=O)N[C@@H](Cc2ccc(O)cc2)C(=O)N[C@@H](CCCCN)C(=O)N[C@@H](CC(=O)O)C(=O)N[C@@H](CC(=O)O)C(=O)N[C@@H](CC(=O)O)C(=O)N[C@@H](CC(=O)O)C(=O)N[C@@H](CCCCN)C(N)=O)NC1=O` (Ac-MCNLSIIHGYVAYICGSGSDYKDDDDK-NH2; disulfide 2-15), the pKd was 9.00 in test [1] (setting [4]), below 5.00 in test [2] and below 5.00 in test [3].
With `CC[C@H](C)[C@@H]1NC(=O)[C@H](CO)NC(=O)[C@H]([C@@H](C)CC)NC(=O)[C@H](CC(C)C)NC(=O)[C@@H](NC(=O)[C@H](CCSC)NC(C)=O)CSSC[C@@H](C(=O)NCC(=O)N[C@@H](CO)C(=O)NCC(=O)N[C@@H](CO)C(=O)N[C@@H](CC(=O)O)C(=O)N[C@@H](Cc2ccc(O)cc2)C(=O)N[C@@H](CCCCN)C(=O)N[C@@H](CC(=O)O)C(=O)N[C@@H](CC(=O)O)C(=O)N[C@@H](CC(=O)O)C(=O)N[C@@H](CC(=O)O)C(=O)N[C@@H](CCCCN)C(N)=O)NC(=O)[C@H](Cc2c[nH]cn2)NC(=O)[C@H](CCCCN)NC(=O)[C@H](CC(C)C)NC(=O)[C@H](C(C)C)NC(=O)[C@H](CCCCN)NC(=O)[C@H](Cc2ccc(O)cc2)NC1=O` (Ac-MCLISIYKVLKHCGSGSDYKDDDDK-NH2; disulfide 2-13), the pKd is below 5.00 in test [1] (crude NNK peptides, single concentration BLI (Table S3)); below 5.00 in test [2]; below 5.00 in test [3].
`CSCC[C@H](NC(C)=O)C(=O)N[C@H]1CSSC[C@@H](C(=O)NCC(=O)N[C@@H](CO)C(=O)NCC(=O)N[C@@H](CO)C(=O)N[C@@H](CC(=O)O)C(=O)N[C@@H](Cc2ccc(O)cc2)C(=O)N[C@@H](CCCCN)C(=O)N[C@@H](CC(=O)O)C(=O)N[C@@H](CC(=O)O)C(=O)N[C@@H](CC(=O)O)C(=O)N[C@@H](CC(=O)O)C(=O)N[C@@H](CCCCN)C(N)=O)NC(=O)[C@H](Cc2ccccc2)NC(=O)[C@H](C(C)C)NC(=O)[C@H](CCCNC(=N)N)NC(=O)[C@H](Cc2c[nH]c3ccccc23)NC(=O)[C@H](Cc2ccc(O)cc2)NC(=O)[C@H](CCC(N)=O)NC(=O)[C@H](C(C)C)NC(=O)[C@H](Cc2ccc(O)cc2)NC(=O)[C@H](Cc2ccc(O)cc2)NC(=O)[C@@H]2CCCN2C1=O` (Ac-MCPYYVQYWRVFCGSGSDYKDDDDK-NH2; disulfide 2-13): the pKd was 8.05 in test [1] (setting [4]), below 5.00 in test [2] and below 5.00 in test [3].
With `CSCC[C@H](NC(C)=O)C(=O)N[C@H]1CSSC[C@@H](C(=O)NCC(=O)N[C@@H](CO)C(=O)NCC(=O)N[C@@H](CO)C(=O)N[C@@H](CC(=O)O)C(=O)N[C@@H](Cc2ccc(O)cc2)C(=O)N[C@@H](CCCCN)C(=O)N[C@@H](CC(=O)O)C(=O)N[C@@H](CC(=O)O)C(=O)N[C@@H](CC(=O)O)C(=O)N[C@@H](CC(=O)O)C(=O)N[C@@H](CCCCN)C(N)=O)NC(=O)[C@H](Cc2ccc(O)cc2)NC(=O)[C@H](C(C)C)NC(=O)[C@H](Cc2ccccc2)NC(=O)[C@H](C(C)C)NC(=O)[C@H](CCCCN)NC(=O)[C@H]([C@@H](C)O)NC(=O)[C@H](CCCCN)NC(=O)[C@H](Cc2c[nH]cn2)NC(=O)[C@H](CC(=O)O)NC(=O)[C@H](CC(C)C)NC(=O)[C@H](Cc2ccccc2)NC1=O` (Ac-MCFLDHKTKVFVYCGSGSDYKDDDDK-NH2; disulfide 2-14), the pKd was 6.89 in test [1] (setting [4]), below 5.00 in test [2] and below 5.00 in test [3].
Turning to `CSCC[C@H](NC(C)=O)C(=O)N[C@H]1CSSC[C@@H](C(=O)NCC(=O)N[C@@H](CO)C(=O)NCC(=O)N[C@@H](CO)C(=O)N[C@@H](CC(=O)O)C(=O)N[C@@H](Cc2ccc(O)cc2)C(=O)N[C@@H](CCCCN)C(=O)N[C@@H](CC(=O)O)C(=O)N[C@@H](CC(=O)O)C(=O)N[C@@H](CC(=O)O)C(=O)N[C@@H](CC(=O)O)C(=O)N[C@@H](CCCCN)C(N)=O)NC(=O)[C@H](Cc2ccc(O)cc2)NC(=O)[C@H](C(C)C)NC(=O)[C@H](CC(C)C)NC(=O)[C@H](C(C)C)NC(=O)[C@H](CCCCN)NC(=O)[C@H](CC(N)=O)NC(=O)[C@H](CC(C)C)NC(=O)[C@H](Cc2ccccc2)NC(=O)[C@H](CC(N)=O)NC(=O)[C@H](Cc2ccc(O)cc2)NC(=O)[C@H](Cc2ccc(O)cc2)NC1=O` (Ac-MCYYNFLNKVLVYCGSGSDYKDDDDK-NH2; disulfide 2-14), the pKd in test [1] (setting [4]) was 8.10; in test [2], below 5.00; in test [3], below 5.00.
In the case of `CSCC[C@H](NC(C)=O)C(=O)N[C@H]1CSSC[C@@H](C(=O)NCC(=O)N[C@@H](CO)C(=O)NCC(=O)N[C@@H](CO)C(=O)N[C@@H](CC(=O)O)C(=O)N[C@@H](Cc2ccc(O)cc2)C(=O)N[C@@H](CCCCN)C(=O)N[C@@H](CC(=O)O)C(=O)N[C@@H](CC(=O)O)C(=O)N[C@@H](CC(=O)O)C(=O)N[C@@H](CC(=O)O)C(=O)N[C@@H](CCCCN)C(N)=O)NC(=O)[C@H](Cc2c[nH]cn2)NC(=O)[C@H](Cc2c[nH]cn2)NC(=O)[C@H](Cc2ccccc2)NC(=O)[C@H](CC(C)C)NC(=O)[C@H](CC(C)C)NC(=O)[C@H](Cc2ccc(O)cc2)NC(=O)[C@H](Cc2ccc(O)cc2)NC(=O)[C@H](Cc2ccccc2)NC(=O)[C@H](CC(C)C)NC(=O)[C@H](CC(=O)O)NC(=O)[C@H](CCC(=O)O)NC1=O` (Ac-MCEDLFYYLLFHHCGSGSDYKDDDDK-NH2; disulfide 2-14), the pKd in test [1] (setting [4]) was 7.09; in test [2] it was 5.34; in test [3], below 5.00.

The record behind these values is paper PMC10763615, “Identification and engineering of potent cyclic peptides with selective or promiscuous binding through biochemical profiling and bioinformatic data analysis” (RSC Chemical Biology, 2023).
